Measurements reported in patent publication US20110097274A1, “Carbon-11 and fluorine-18 labeled radioligands for positron emission tomography (PET) imaging for the brain serotonin transporters” (priority 2002, published 2011).
“And” between values parts separate entries of the source, which are not always exact repeats. Equal values may be shown once.

Tested on: SERT
Test: Baboon PET imaging: brain uptake, kinetic analysis and SERT parameters
Format: in vivo
In short: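 Two isoflurane-anaesthetised adult male baboons, each radioligand tested twice (test-retest); i.v. bolus, 91 min 3D emission scan with arterial sampling, MRI-defined regions. Brain uptake as % ID g^−1, with peak time and washout; VT from one-tissue compartment model (K1/k2) using arterial plasma input.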

[1] = BP = VT ROI − VT CER, baboons, mean ± SD of four experiments
[2] = Mean ± SD of four experiments in two baboons
[3] = baboon A, experiments of FIGS. 5-9 (FIG. 10)
[4] = baboons, mean ± SD of four experiments
[5] = last scan 90 minutes, baboons, mean ± SD of four experiments
[6] = one-tissue compartment model, baboons, mean ± SD of four experiments

Compound: CN([11CH3])Cc1ccccc1Sc1ccc(CF)cc1N [[^11C]AFM, [^11C]2-[2-(Dimethylaminomethyl)phenylthio]-5-fluoromethylphenylamine]
- Binding potential Cingulate Cortex [1]: 8.5 ± 1.0 mL/g
- Binding potential Hippocampus [1]: 20.9 ± 2.5 mL/g
- Binding potential Midbrain [1]: 65.8 ± 11.7 mL/g
- Binding potential Occipital Cortex [1]: 7.3 ± 1.3 mL/g
- Binding potential Striatum [1]: 31.3 ± 6.5 mL/g
- Binding potential Temporal Cortex [1]: 11.8 ± 0.9 mL/g
- Binding potential Thalamus [1]: 71.3 ± 16.5 mL/g
- Equilibrium specific to non-specific partition coefficient (V3″) Cingulate Cortex (Baboon A, single experiment): 0.30 and 0.26
- Equilibrium specific to non-specific partition coefficient (V3″) Hippocampus (Baboon A, single experiment): 0.70 and 0.75
- Equilibrium specific to non-specific partition coefficient (V3″) Midbrain (Baboon A, single experiment): 2.13 and 2.18
- Equilibrium specific to non-specific partition coefficient (V3″) Occipital Cortex (Baboon A, single experiment): 0.29 and 0.30
- Equilibrium specific to non-specific partition coefficient (V3″) Striatum (Baboon A, single experiment): 0.97 and 0.92
- Equilibrium specific to non-specific partition coefficient (V3″) Temporal Cortex (Baboon A, single experiment): 0.38 and 0.46
- Equilibrium specific to non-specific partition coefficient (V3″) Thalamus (Baboon A, single experiment): 2.10
- Equilibrium specific to non-specific partition coefficient (V3″) Cingulate Cortex (Baboon B, single experiment): 0.30 and 0.25
- Equilibrium specific to non-specific partition coefficient (V3″) Hippocampus (Baboon B, single experiment): 0.61 and 0.69
- Equilibrium specific to non-specific partition coefficient (V3″) Midbrain (Baboon B, single experiment): 1.94 and 2.33
- Equilibrium specific to non-specific partition coefficient (V3″) Occipital Cortex (Baboon B, single experiment): 0.18 and 0.20
- Equilibrium specific to non-specific partition coefficient (V3″) Striatum (Baboon B, single experiment): 1.06 and 1.11
- Equilibrium specific to non-specific partition coefficient (V3″) Temporal Cortex (Baboon B, single experiment): 0.35 and 0.37
- Equilibrium specific to non-specific partition coefficient (V3″) Thalamus (Baboon B, single experiment): 2.46 and 2.58
- Equilibrium specific to non-specific partition coefficient (V3″) Cingulate Cortex [2]: 0.28 ± 0.02
- Equilibrium specific to non-specific partition coefficient (V3″) Hippocampus [2]: 0.69 ± 0.06
- Equilibrium specific to non-specific partition coefficient (V3″) Midbrain [2]: 2.14 ± 0.16
- Equilibrium specific to non-specific partition coefficient (V3″) Occipital Cortex [2]: 0.24 ± 0.06
- Equilibrium specific to non-specific partition coefficient (V3″) Striatum [2]: 1.01 ± 0.08
- Equilibrium specific to non-specific partition coefficient (V3″) Temporal Cortex [2]: 0.39 ± 0.05
- Equilibrium specific to non-specific partition coefficient (V3″) Thalamus [2]: 2.31 ± 0.25
- Thalamus to cerebellum ratio equal to true equilibrium ratio (V3″+1) [3]: 3.10
- Time at which measured thalamus to cerebellum ratio equals the true equilibrium ratio (estimate of peak specific binding) [3]: 64 min
- K1, average of all regions and all animals (baboons): 1.44 ± 0.40 mL/g/min
- VT, average of all regions and all animals (baboons): 57.5 ± 27.5 mL/g
- k2, average of all regions and all animals (baboons): 0.030 ± 0.015 min⁻¹
- f2 (free fraction in the nonspecific distribution volume) (baboons, calculated from f1 and cerebellar VT): 0.32±0.04%
- V3″ expressed in percentage of [^11C]McN 5652 V3″ (baboons, combining all regions): 193±35%
- Mean regional peak uptake time (baboons, mean of all regions): 38 ± 19 min
- Mean regional wash-out (% decrease between peak time and last scan) (baboons, mean of all regions): 32±26%
- Cingulate Cortex to cerebellum activity ratio at 90 minutes [4]: 1.30 ± 0.09
- Hippocampus to cerebellum activity ratio at 90 minutes [4]: 1.84 ± 0.40
- Midbrain to cerebellum activity ratio at 90 minutes [4]: 3.48 ± 1.09
- Occipital Cortex to cerebellum activity ratio at 90 minutes [4]: 1.26 ± 0.18
- Regional uptake peak time Cerebellum [4]: 23 ± 11 min
- Regional uptake peak time Cingulate Cortex [4]: 28 ± 11 min
- Regional uptake peak time Hippocampus [4]: 39 ± 16 min
- Regional uptake peak time Midbrain [4]: 56 ± 24 min
- Regional uptake peak time Occipital Cortex [4]: 30 ± 14 min
- Regional uptake peak time Striatum [4]: 44 ± 21 min
- Regional uptake peak time Temporal Cortex [4]: 34 ± 14 min
- Regional uptake peak time Thalamus [4]: 54 ± 22 min
- Striatum to cerebellum activity ratio at 90 minutes [4]: 2.10 ± 0.24
- Temporal Cortex to cerebellum activity ratio at 90 minutes [4]: 1.44 ± 0.20
- Thalamus to cerebellum activity ratio at 90 minutes [4]: 3.51 ± 0.72
- Total brain uptake at 45 min (baboons, region encompassing the entire brain): 0.016±0.002 % ID g^−1
- In vivo affinity relative to [^11C]DASB (times higher) (from Bmax/KD ratios, assuming same number of binding sites): 3.3 times
- Regional activity wash-out: % decrease from peak to last scan, Cerebellum [5]: 48 ± 28%
- Regional activity wash-out: % decrease from peak to last scan, Cingulate Cortex [5]: 43 ± 27%
- Regional activity wash-out: % decrease from peak to last scan, Hippocampus [5]: 26 ± 27%
- Regional activity wash-out: % decrease from peak to last scan, Midbrain [5]: 16 ± 22%
- Regional activity wash-out: % decrease from peak to last scan, Occipital Cortex [5]: 42 ± 27%
- Regional activity wash-out: % decrease from peak to last scan, Striatum [5]: 29 ± 31%
- Regional activity wash-out: % decrease from peak to last scan, Temporal Cortex [5]: 36 ± 29%
- Regional activity wash-out: % decrease from peak to last scan, Thalamus [5]: 18 ± 25%
- K1 Cerebellum [6]: 1.52 ± 0.49 mL/g/min
- K1 Cingulate Cortex [6]: 1.48 ± 0.40 mL/g/min
- K1 Hippocampus [6]: 1.15 ± 0.35 mL/g/min
- K1 Midbrain [6]: 1.57 ± 0.41 mL/g/min
- K1 Occipital Cortex [6]: 1.35 ± 0.37 mL/g/min
- K1 Striatum [6]: 1.48 ± 0.48 mL/g/min
- K1 Temporal Cortex [6]: 1.25 ± 0.34 mL/g/min
- K1 Thalamus [6]: 1.68 ± 0.42 mL/g/min
- K2 Cerebellum [6]: 0.051 ± 0.021 min⁻¹
- K2 Cingulate Cortex [6]: 0.039 ± 0.012 min⁻¹
- K2 Hippocampus [6]: 0.023 ± 0.008 min⁻¹
- K2 Midbrain [6]: 0.017 ± 0.006 min⁻¹
- K2 Occipital Cortex [6]: 0.036 ± 0.011 min⁻¹
- K2 Striatum [6]: 0.025 ± 0.010 min⁻¹
- K2 Temporal Cortex [6]: 0.030 ± 0.010 min⁻¹
- K2 Thalamus [6]: 0.017 ± 0.006 min⁻¹
- VT Cerebellum (VT CER, nonspecific distribution volume) [6]: 30.6 ± 3.9 mL/g
- VT Cingulate Cortex [6]: 39.0 ± 4.7 mL/g
- VT Hippocampus [6]: 51.5 ± 6.1 mL/g
- VT Midbrain [6]: 96.3 ± 15.3 mL/g
- VT Occipital Cortex [6]: 37.9 ± 3.6 mL/g
- VT Striatum [6]: 61.9 ± 10.4 mL/g
- VT Temporal Cortex [6]: 42.4 ± 4.5 mL/g
- VT Thalamus [6]: 101.9 ± 20.4 mL/g
